The values that follow come from patent publication US10981932B2, “Macrocyclic indole derivatives” (Bayer Aktiengesellschaft, priority 2016, dated 2021).

The test system of assay [1] is SUDHL10. The assay is described as follows: Induction of caspase-3/7 activity (Caspase-Glo 3/7), SUDHL10. The format is cell-based. Conditions: Homo sapiens, SU-DHL10, 3 h, caspase-3/7 induction, SUDHL10 cells, 3 h treatment; median. The method in brief:
(§1)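 A 3 h, 37 °C compound incubation precedes the Caspase-Glo 3/7 read. After subtracting medium-only signal, EC50s are fitted against the reference compound's maximal caspase induction.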

Assay [2] relates to SUDHL10. Nature of the assay: Induction of cytotoxicity (CellTiter-Glo, 5 h), SUDHL10. The following applies: Homo sapiens, SU-DHL10, 5 h, read-out: Cytotox SUDHL10 [M] (median), SUDHL10 cells, cytotoxicity induction, CellTiter-Glo, 5 h incubation, median.
Experimental: Therefore, cytotoxicity assays were run in parallel in SUDHL5 and SUDHL10 cells.
The different cell lines were plated in culture medium (RPMI 1640 [GIBCO #22400-089]supplemented with 10% Fetal Bovine Serum) at a density of 3.300 cells in 30 μl/well in a sterile, solid black, flat bottom, polystyrene, TC-treated 384-well microplate (Corning #3571) using Multidrop Combi Reagent Dispenser. As a control, medium without cells was also added to the plate. Cells were incubated in a humidified incubator at 37° C. overnight. On the next day, the cells were treated with compounds (stock solution, 10 mM in DMSO) using the HP D300 Digital Dispenser in a concentration range of 3.3×10e-5 M (33 μM) to 5×10e-9 M (5 nM) in a single-dot curve with at least 16 dilutions and a DMSO concentration of 0.33%. Rim wells were excluded. The cells were incubated for 5 h hours in a humidified incubator at 37° C. After this incubation, 30 μl of CellTiter-Glo@ Luminescent Cell Viability reagent (Promega, G7573) was added to each well using the Multidrop Combi Reagent Dispenser, followed by 15 min incubation on a shaker at room temperature. Finally, luminescence was read at 0.1 ms, with a gain of 3000 using the PHERAstar FS microplate reader (BMG Labtech).
The Bella DRC Master Sheet was used to calculate IC50s, with fixed CI=0 and C0=1.
Assay [3] relates to SUDHL5. The assay is described as follows: Anti-proliferative effect (CellTiter-Glo, 72 h), SUDHL5. The format is cell-based. Conditions: Homo sapiens, SU-DHL-5, 72 h, SUDHL5 cells, antiproliferation, 72 h incubation, median, read-out: Antiproli SUDHL5 [M] (median). The method in brief:
(§2)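 Endpoint: CellTiter-Glo luminescence, 10 min after reagent addition. Treatment ran 72 h at 37 °C, humidified. Growth was referenced to a separately plated day 0 plate.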
(In general: In ATP-based viability assays light output follows the ATP content of the culture.)

The next assay relates to A2780. The assay is described as follows: Anti-proliferative effect (CellTiter-Glo, 72 h), A2780. The following applies: A2780 cells, median, read-out: IC50 antiproliferation assay A2780 [M] (median). Format: cell-based. The method in brief: as §2
In assay [4] the test system is SUDHL10. The assay is described as follows: Anti-proliferative effect (CellTiter-Glo, 72 h), SUDHL10. Conditions: Homo sapiens, SU-DHL10, 72 h, SUDHL10 cells, antiproliferation, 72 h incubation, median, read-out: Antiproli SUDHL10 [M] (median). Format: cell-based. The method, then: Assessment of the Anti-Proliferative Effect of Compounds in Different Cell Lines
The impact of compounds on the proliferation of different cell lines was assessed using the CellTiter-Glo® Luminescent Cell Viability reagent from Promega (G7573). Of note, SUDHL10 and SUDHL5 (DLBCL), NCI-H929 (Multiple Myeloma), A2780 (ovarian carcinoma) as well as MV-4-11(AML) cells are sensitive to MCL-1 inhibition.
In parallel, cells were plated in a reference (day 0) plate for time zero determination.
Rim wells were excluded. The cells were incubated for 72 h hours in a humidified incubator at 37° C. The day 0 plate was measured by adding 30 μl/well of CTG solution (CellTiter-Glo® Luminescent Cell Viability reagent, Promega G7573) to time zero wells in the reference plate followed by a 10 minutes incubation and luminescence reading at 0.1 ms, using the PHERAstar FS microplate reader (BMG Labtech).
After 72 h incubation, the treated plates were measured in the same way as the day 0 plate mentioned above.

Assay [5] relates to SUDHL5. The assay is described as follows: Induction of caspase-3/7 activity (Caspase-Glo 3/7), SUDHL5. Format: cell-based. Conditions: Homo sapiens, SU-DHL-5, 3 h, caspase-3/7 induction, SUDHL5 cells, 3 h treatment; median. The method in brief: as §1
Assay [6] has as its system SUDHL5. Nature of the assay: Induction of cytotoxicity (CellTiter-Glo, 5 h), SUDHL5. The following applies: Homo sapiens, SU-DHL-5, 5 h, read-out: Cytotox SUDHL5 [M] (median), SUDHL5 cells, cytotoxicity induction, CellTiter-Glo, 5 h incubation, median.
Another assay concerns the target MCL-1 (Homo sapiens, UniProt Q07820). Nature of the assay: Protein-protein interaction assay MCL-1/Noxa BH3 peptide (MCL-1 assay), TR-FRET. Format: binding. The following applies: MBP-MCL-1 / Noxa BH3-derived peptide, median. A digest of the protocol:
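Steady-state competition, MCL-1/Noxa BH3, TR-FRET readout; 1 nM MBP-MCL-1, 11-point dose series 0.1 nM–20 μM; overnight 4 °C equilibration; 4-parameter IC50.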
Background: In TR-FRET formats the signal depends on donor and acceptor labels being close together.

Like-named read-outs stand apart in the source and are kept apart here. Some results are limits rather than exact numbers.

Chain of MCL-1 (Q07820 whole entry): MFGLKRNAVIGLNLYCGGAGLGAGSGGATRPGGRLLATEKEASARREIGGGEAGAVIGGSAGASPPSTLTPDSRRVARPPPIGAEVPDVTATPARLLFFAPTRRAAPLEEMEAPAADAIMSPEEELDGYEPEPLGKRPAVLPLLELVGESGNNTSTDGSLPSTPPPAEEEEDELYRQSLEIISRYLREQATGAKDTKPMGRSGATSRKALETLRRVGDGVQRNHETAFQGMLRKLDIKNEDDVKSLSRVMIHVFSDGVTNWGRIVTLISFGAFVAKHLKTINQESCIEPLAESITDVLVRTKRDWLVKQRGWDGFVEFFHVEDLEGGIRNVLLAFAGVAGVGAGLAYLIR

As usually defined, the EC50 is the concentration needed to bring the measured effect to its halfway point. A low value points to greater potency. `CCCc1nn(C)c2c1-c1c(C)ccc3c(CCCOc4cccc5ccccc45)c(C(=O)O)n(c13)CCCCOC2` (racemic) [Example 187, (rac)-1,4-dimethyl-7-[3-(naphthalen-1-yloxy)propyl]-3-propyl-1,10,11,12,13,15-hexahydropyrazolo[4′,3′:9,10][1,6]oxazacycloundecino[8,7,6-hi]indole-8-carboxylic Acid]: the figures for the EC50 with SUDHL10 [1] and in the assay with SUDHL5 [5] were 13.3 µM and 3.71 µM, respectively. Besides, the IC50 with SUDHL10 [2] is 1.07e-05 M; with SUDHL5 [3] it was 7.27e-06 M; with A2780 it was greater than 3.3e-05 M; in the assay on A2780 (Homo sapiens, A2780, 72 h), 2.17e-05 M; with SUDHL10 [4] it was 1.41e-05 M; in the assay on SUDHL5 [6] it was 3.85e-06 M. Further, the IC50 against MCL-1 is 0.00261 µM.
For the compound `Cc1c2c(nn1C)CCCCCCn1c(C(=O)O)c(CCCOc3cccc4ccccc34)c3cccc-2c31` (racemic) [Example 190, (rac)-2,3-dimethyl-7-[3-(1-naphthyloxy)propyl]-10,11,12,13,14,15-hexahydro-2H-pyrazolo[4′,3′:4,5]azacycloundecino[3,2,1-hi]indole-8-carboxylic Acid], the values for the concentration giving a half-maximal response (EC50) in the assay with SUDHL10 [1] and with SUDHL5 [5] were 7.26 µM and 3.13 µM, respectively. Also, the IC50 came to 9.19e-06 M in the assay with SUDHL10 [2]; 2.35e-06 M in the assay on SUDHL5 [3]; 2.02e-05 M in the assay with A2780 (Homo sapiens, A2780, 72 h); 5.34e-06 M with SUDHL10 [4]; 3.85e-06 M with SUDHL5 [6]; 0.00546 µM on MCL-1.
Consider `CCCc1nn(C)c2c1-c1c(C)ccc3c(CCCOc4cccc5ccccc45)c(C(=O)O)n(c13)CCCN(C)C2` (racemic) [Example 193, (rac)-7,9,12-trimethyl-1-[3-(naphthalen-1-yloxy)propyl]-1-propyl-4,5,6,7,8,9-hexahydropyrazolo[3′,4′:7,8][1,5]diazecino[9,10,1-hi]indole-2-carboxylic Acid], for which the concentration giving a half-maximal response (EC50) in the assay on SUDHL10 [1] was 8.35 µM; in the assay with SUDHL5 [5], 2.47 µM. The IC50 with SUDHL10 [2] was found to be 7.65e-06 M; with SUDHL5 [3] it was 4.45e-06 M; in the assay with A2780 (Homo sapiens, A2780, 72 h), 1.9e-05 M; with SUDHL10 [4] it was 7.14e-06 M; in the assay on SUDHL5 [6] it was 2.3e-06 M; on MCL-1, 0.00233 µM.
On to `CCc1nn(CCN2CCOCC2)c2c1-c1cccc3c(CCCOc4cccc5ccccc45)c(C(=O)O)n(c13)CCCCOC2` (racemic) [Example 198, (rac)-3-ethyl-1-[2-(morpholin-4-yl)ethyl]-7-[3-(naphthalen-1-yloxy)propyl]-1,10,11,12,13,15-hexahydropyrazolo[4′,3′:9,10][1,6]oxazacycloundecino[8,7,6-hi]indole-8-carboxylic Acid], for which the figures for the half-maximal effective concentration (EC50) in the assay on SUDHL10 [1] and in the assay on SUDHL5 [5] were 6.94 µM and 1.72 µM, respectively. Also, the IC50 in the assay on SUDHL10 [2] was 6.77e-06 M; in the assay with SUDHL5 [3], 3.35e-06 M; in the assay with A2780 (Homo sapiens, A2780, 72 h), 2.25e-05 M; with SUDHL10 [4], 7.48e-06 M; in the assay on SUDHL5 [6], 2.05e-06 M; against MCL-1, 0.0028 µM.
On to `CCc1c2c(nn1CCN1CCOCC1)COCCCCn1c(C(=O)O)c(CCCOc3cccc4ccccc34)c3ccc(C)c-2c31` (racemic) [Example 204, (rac)-3-ethyl-4-methyl-2-[2-(morpholin-4-yl)ethyl]-7-[3-(naphthalen-1-yloxy)propyl]-2,10,11,12,13,15-hexahydropyrazolo[4′,3′:9,10][1,6]oxazacycloundecino[8,7,6-hi]indole-8-carboxylic Acid], for which the EC50 worked out at 6.09 µM in the assay with SUDHL10 [1] and 1.73 µM in the assay with SUDHL5 [5]. Moreover, the IC50 is 5.63e-06 M in the assay with SUDHL10 [2]; 4.17e-06 M with SUDHL5 [3]; 1.78e-05 M in the assay with A2780 (Homo sapiens, A2780, 72 h); 5.15e-06 M in the assay with SUDHL10 [4]; 1.9e-06 M with SUDHL5 [6]; 0.00375 µM on MCL-1.
As to `COc1c2c(nn1C)COCCCCn1c(C(=O)O)c(CCCOc3cccc4ccccc34)c3cccc-2c31` (racemic) [Example 207, (rac)-3-methoxy-2-methyl-7-[3-(naphthalen-1-yloxy)propyl]-2,10,11,12,13,15-hexahydropyrazolo[4′,3′:9,10][1,6]oxazacycloundecino[8,7,6-hi]indole-8-carboxylate], the figures for the EC50 in the assay on SUDHL10 [1] and with SUDHL5 [5] were 11.4 µM and 4.85 µM, respectively. Also, the IC50 in the assay on SUDHL10 [2] is 1.08e-05 M; in the assay on SUDHL5 [3], 5.28e-06 M; in the assay on A2780 (Homo sapiens, A2780, 72 h), 2.47e-05 M; in the assay on SUDHL10 [4], 7.76e-06 M; in the assay on SUDHL5 [6], 4.45e-06 M; against MCL-1, 0.00681 µM.
As for `Cn1nc(COC2CC2)c2c1COCCCCn1c(C(=O)O)c(CCCOc3cccc4ccccc34)c3cccc-2c31` (racemic) [Example 213, (rac)-3-[(cyclopropyloxy)methyl]-1-methyl-7-[3-(naphthalen-1-yloxy)propyl]-1,10,11,12,13,15-hexahydropyrazolo[4′3′:9,10][1,6]oxazacycloundecino[8,7,6,6-hi]indole-8-carboxylic Acid], the EC50 in the assay on SUDHL10 [1] and in the assay on SUDHL5 [5] was greater than 33 µM throughout. In addition, the IC50 was greater than 3.3e-05 M in the assay on SUDHL10 [2]; 2.49e-06 M in the assay with SUDHL5 [3]; 2.91e-05 M with A2780 (Homo sapiens, A2780, 72 h); 5.12e-06 M in the assay on SUDHL10 [4]; greater than 3.3e-05 M with SUDHL5 [6]; 0.0134 µM at MCL-1.
Turning to `Cn1nc(CC(F)(F)F)c2c1COCCCCn1c(C(=O)O)c(CCCOc3cccc4ccccc34)c3cccc-2c31` (racemic) [Example 219, (rac)-1-methyl-7-[3-(naphthalen-1-yloxy)propyl]-3-(2,2,2-trifluoroethyl)-1,10,11,12,13,15-hexahydropyrazolo[4′,3′:9,10][1,6]oxazacycloundecino[8,7,6-hi]indole-8-carboxylic Acid], the values for the EC50 with SUDHL10 [1] and in the assay with SUDHL5 [5] were greater than 33 µM and 12.8 µM, respectively. The IC50 is 2.47e-05 M in the assay on SUDHL10 [2]; 9.95e-06 M in the assay with SUDHL5 [3]; greater than 3.3e-05 M in the assay on A2780 (Homo sapiens, A2780, 72 h); 1.36e-05 M with SUDHL10 [4]; 9.71e-06 M in the assay with SUDHL5 [6]; 0.014 µM at MCL-1.
With `Cn1ccnc1COCc1nn(C)c2c1-c1cccc3c(CCCOc4cccc5ccccc45)c(C(=O)O)n(c13)CCCCOC2` (racemic) [Example 231, (rac)-1-methyl-3-{[(1-methyl-1H-imidazol-2-yl)methoxyl]methyl}-7-[3-(naphthalen-1-yloxy)propyl]-1,10,11,12,13,15-hexahydropyrazolo[4′,3′:9,10][1,6]oxazacycloundecino[8,7,6-hi]indole-8-carboxylic Acid], the results for the EC50 with SUDHL10 [1] and in the assay with SUDHL5 [5] were 16.1 µM and 17.3 µM, respectively. Also, the IC50 with SUDHL10 [2] is 1.6e-05 M; with SUDHL5 [3], 8.1e-06 M; in the assay with A2780 (Homo sapiens, A2780, 72 h) it was greater than 3.3e-05 M; in the assay with SUDHL10 [4] it was 1.14e-05 M; in the assay with SUDHL5 [6], 1.33e-05 M; on MCL-1 it was 0.0262 µM.
Turning to `Cn1nc2c(c1OC(F)F)-c1cccc3c(CCCOc4cccc5ccccc45)c(C(=O)O)n(c13)CCCCOC2` (racemic) [Example 234, (rac)-3-(difluoromethoxy)-2-methyl-7-[3-(naphthalen-1-yloxy)propyl]-2,10,11,12,13,15-hexahydropyrazolo[4′,3′:9,10][1,6]oxazacycloundecino[8,7,6-hi]indole-8-carboxylic Acid], the EC50 in the assay on SUDHL10 [1] came to 31.6 µM; in the assay with SUDHL5 [5], 30.1 µM. Besides, the IC50 in the assay on SUDHL10 [2] was greater than 3.3e-05 M; in the assay with SUDHL5 [3], 3.15e-05 M; with A2780 (Homo sapiens, A2780, 72 h) it was 3.04e-05 M; in the assay with SUDHL10 [4] it was 1.98e-05 M; with SUDHL5 [6], 2.71e-05 M; against MCL-1, 0.0139 µM.
